Assay results reported in patent US11806393B2, “Flavivirus peptide sequences, epitopes, and methods and uses thereof” (priority 2017, dated 2023).

Key:
Format in all cases: cell-based, mouse
[1] = system: CD8+ T cells; assay: IFNγ ELISPOT, ZIKV-infected Ifnar-/- HLA-B*0702 transgenic mice; conditions: HLA-B*0702 mice; for SFC/10^6 CD8+ T cells, FSS13025: 7 days after 1×10^2 FFU ZIKV FSS13025; for SFC/10^6 CD8+ T cells, MR766: 7 days after 1×10^2 FFU ZIKV MR766; for immunodominance in IFNγ ELISPOT: immunodominant: >500 SFCs/10^6 CD8+ T cells, shared by both ZIKV strains
Outline: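 Mice were infected retro-orbitally with 1×10^2 FFU ZIKV (FSS13025 or MR766), and splenic CD8+ T cells were isolated 7 days later. 2×10^5 cells were stimulated 20 h with 1×10^5 LPS-blasts loaded with 10 μg peptide, in triplicate. Output is SFC/10^6 CD8+ T cells; positive if net >20 and stimulation index >2.0.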

[2] = system: CD8+ T cells; assay: IFNγ ICS, DENV2 S221-infected Ifnar-/- HLA-B*0702 transgenic mice; conditions: HLA-B*0702 mice; for % IFNγ+ CD8+ T cells, S221: 7 days after DENV2 S221, ICS; for ZIKV/DENV cross-reactivity in DENV2-infected mice (IFNγ ELISPOT and IFNγ ICS): DENV2 S221, 7 days
Method: (§1) Two ZIKV strains, MR766 (Uganda, 1947) and FSS13025 (Cambodia, 2010), were obtained from the World Reference Center for Emerging Viruses and Arboviruses (WRCEVA). The mouse-adapted DENV2 strain S221 is a triple-plaque purified clone derived from DENV2 D2S1038. Both ZIKV and DENV2 were amplified in C6/36 mosquito cells, and viral titers were measured using baby hamster kidney (BHK)-21 cell-based focus forming assay (FFA). For epitope screening, 5-week old mice (female or male) were infected retro-orbitally (R.O.) with either 1×102 FFU of ZIKV FSS13025 or ZIKV MR766, or 2×10^4 FFU of DENV2 S221 in 200 μl 10% FBS/PBS. Seven days after infection, CD8^+ T cells were isolated from splenocytes and used for ELISPOT assay, while the splenocytes were directly used for ICS assay. Additionally, 5-week old mice were inoculated I.P. with 2×10^3 FFU of DENV2 S221 for 4 weeks.
(§2) Spleens were harvested from virus-infected, mock-immunized, or peptide-immunized mice. 1×10^6 splenocytes were plated in each well of 96-well U-bottom plates and stimulated with individual peptide (10 μg crude peptide or 1 μg pure peptide per well) for 6 hours. Five hours before the end of incubation, Brefeldin A (GolgiPlug; BD Biosciences) and PE-conjugated anti CD107a mAb (clone 1D4B, eBioscience) were added to the cells. Splenocytes stimulated with PMA-ionomycin were used as the positive control, while cells without any stimulation were the negative control. […] Samples were run using an LSR™ II (BD Biosciences) and analyzed using FLOWJO™ software X 10.0.7 (Tree Star, Ashland, Oreg.).
The following results are with respect to FIG. 14A and FIG. 14B, where Ifnar^−/− HLA-B*0702 transgenic mice were infected R.O. with 2×10^4 FFU of DENV2 strain S221 for 7 days. CD8^+ T cells isolated from splenocytes were stimulated with each of the 37 ZIKV epitopes identified via IFNγELISPOT to perform (FIG. 14A) IFNγELISPOT and (FIG. 14B) ICS assay. Data represent the average of two independent IFNγELISPOT experiments and two independent ICS experiments (n=7 mice) and are expressed as mean±SEM. Dotted line corresponds to the cutoff value. *, P<0.05.

[3] = system: CD44+CD62L- CD8+ T cells; assay: ICS, peptide-immunized Ifnar-/- HLA-B*0702 mice challenged with ZIKV; conditions: mice immunized with the 4 ZIKV/DENV cross-reactive peptides, day 3 after ZIKV challenge
Description: Two HLA-B*0702-binding ZIKV-specific peptides (FSS-NS2A133-141(SEQ ID NO: 41) and FSS/MR766-NS2B68-75 (SEQ ID NO: 45)) and four ZIKV/DENV cross-reactive peptides (FSS/MR766-NS4B426-435 (SEQ ID NO: 60), FSS/MR766-NS2A75-84 (SEQ ID NO: 39), FSS/MR766-NS3206-215 (SEQ ID NO: 47), and FSS/MR766-NS3574-582 (SEQ ID NO: 52)) were chosen for synthesis. Five HLA-A*0101-binding peptides (FSS/MR-E159-167 (SEQ ID NO: 70), FSS/MR-E195-203 (SEQ ID NO: 71), FSS/MR-NS123-31 (SEQ ID NO: 74), FSS/MR-NS4B231-239 (SEQ ID NO: 77), and FSS/MR-NS5509-517 (SEQ ID NO: 79)) were chosen for synthesis. Mice (both female and male; 5-6 weeks of age) were immunized subcutaneously with a mixture of HCV helper peptide (100 μg/mouse) and 3 or 4 HLA-B*0702-binding peptides (50 μg/peptide/mouse) emulsified in Complete Freund's Adjuvant (CFA). Mock group mice received the same immunization strategy but without any ZIKV-specific or ZIKV/DENV cross-reactive peptide. On the 21st day, mice were boosted with the same peptide mixtures emulsified in Incomplete Freund's Adjuvant (IFA). […] Three days post ZIKV infection mice were sacrificed, and serum and spleen were harvested. The splenocytes were used for ICS assay. After cardiac perfusion with PBS, brain was harvested. The levels of infectious ZIKV in serum and brain were measured using FFA.
as §2
Peptide groups received corresponding peptide immunizations as described in Materials and Methods. […] CD3^+CD8^+CD44^+CD62L− T cells were gated and the percentages of IFNγ^+ and/or TNFα^+ cells in a representative mouse from mock (FIG. 12A) and peptide (FIG. 12B) groups were determined by ICS. The levels of infectious ZIKV in sera and brains were measured via FFA. Data were expressed as mean±SEM. *, P<0.05; **, P<0.01; ***, P<0.001. Two-tailed Mann-Whitney test.

[4] = system: CD3+CD8+ T cells; assay: IFNγ ICS, ZIKV-infected Ifnar-/- HLA-B*0702 transgenic mice; conditions: for % IFNγ+ CD8+ T cells, FSS13025 / % IFNγ+ CD8+ T cells, MR766: HLA-B*0702 mice; for % IFNγ+ CD8+ T cells, FSS13025: 7 days after ZIKV FSS13025, ICS; for % IFNγ+ CD8+ T cells, MR766: 7 days after ZIKV MR766, ICS; for simultaneous IFNγ and TNFα production by peptide-stimulated CD8+ T cells: ZIKV MR766-infected mice
Method: as §1, §2
Data represent the average of two independent experiments and are expressed as mean±SEM. *, P<0.05; **, P<0.01; Two-tailed Mann-Whitney test. P/I denotes PMA/ionomycin.

Row | Sequence | SFC/10^6 CD8+ T cells, FSS13025 [1] | SFC/10^6 CD8+ T cells, MR766 [1] | immunodominance in IFNγ ELISPOT [1] | % IFNγ+ CD8+ T cells, S221 [2] | ZIKV/DENV cross-reactivity in DENV2-infected mice (IFNγ ELISPOT and IFNγ ICS) [2] | percentage of epitope-specific cells among antigen experienced (CD44+CD62L-) CD8+ T cells [3] | % IFNγ+ CD8+ T cells, FSS13025 [4] | % IFNγ+ CD8+ T cells, MR766 [4] | simultaneous IFNγ and TNFα production by peptide-stimulated CD8+ T cells [4]
1 | KPRWMDARV [FSS/MR-NS3574-582] | 969 SFC/10^6 CD8+ T cells | 1095 SFC/10^6 CD8+ T cells | immunodominant | (0.63%) | positive in both IFNγ ELISPOT and IFNγICS assays | 0.84±0.39% | (0.79%) | (1.9%) | stimulated simultaneous production of IFNγ and TNFα
2 | RPALLVSFIF [FSS/MR-NS2A75-84] | 713 SFC/10^6 CD8+ T cells | 582 SFC/10^6 CD8+ T cells | immunodominant | (0.58%) | positive in both IFNγ ELISPOT and IFNγICS assays | 3.27±1.91% | (0.53%) | (2.04%) | stimulated simultaneous production of IFNγ and TNFα
